Laboratory results: ChEMBL document CHEMBL4433242, “Rapalogs Potential as Practical Alternatives to Rapamycin” (ACS Med Chem Lett, 2019)

What follows are molecules tested against Serine/threonine-protein kinase mTOR (Mus musculus, UniProt Q9JLN9) (assay: Inhibition of mTOR in mouse TSC1-/- MEF cells assessed as inhibition of S6 Ser240/244 phosphorylation incubated for 2 hrs by fluorescence based assay).
Format: cell-based

SMILES | IC50
CO[C@@H]1C[C@H](C[C@@H](C)[C@@H]2CC[C@H](C)/C=C(\C)[C@@H](O)[C@@H](OC)C(=O)[C@H](C)C[C@H](C)/C=C/C=C/C=C(\C)C(N3CCS3(=O)=O)C[C@@H]3CC[C@@H](C)[C@@](O)(O3)C(=O)C(=O)N3CCCC[C@H]3C(=O)O2)CC[C@@H]1n1cnnn1 (stereo not given in full) | 0.374 nM
CO[C@@H]1C[C@H](C[C@@H](C)[C@@H]2CC[C@H](C)/C=C(\C)[C@@H](O)[C@@H](OC)C(=O)[C@H](C)C[C@H](C)/C=C/C=C/C=C(\C)C(N3CCN(CCO)C3=O)C[C@@H]3CC[C@@H](C)[C@@](O)(O3)C(=O)C(=O)N3CCCC[C@H]3C(=O)O2)CC[C@H]1O (stereo not given in full) | 153 nM
CO[C@@H]1C[C@H](C[C@@H](C)[C@@H]2CC[C@H](C)/C=C(\C)[C@@H](O)[C@@H](OC)C(=O)[C@H](C)C[C@H](C)/C=C/C=C/C=C(\C)[C@H](N3CCCS3(=O)=O)C[C@@H]3CC[C@@H](C)[C@@](O)(O3)C(=O)C(=O)N3CCCC[C@H]3C(=O)O2)CC[C@H]1O | 0.274 nM

More lines, in order of falling IC50, values ahead:

IC50 | SMILES
3.2 nM | CO[C@@H]1C[C@H](C[C@@H](C)[C@@H]2CC[C@H](C)/C=C(\C)[C@@H](O)[C@@H](OC)C(=O)[C@H](C)C[C@H](C)/C=C/C=C/C=C(\C)C(N3CCCS3(=O)=O)C[C@@H]3CC[C@@H](C)[C@@](O)(O3)C(=O)C(=O)N3CCCC[C@H]3C(=O)O2)CC[C@H]1OP(C)(C)=O (stereo not given in full)
0.17 nM | CO[C@@H]1C[C@H](C[C@@H](C)[C@@H]2CC[C@H](C)/C=C(\C)[C@@H](O)[C@@H](OC)C(=O)[C@H](C)C[C@H](C)/C=C/C=C/C=C(\C)C(N3CCS3(=O)=O)C[C@@H]3CC[C@@H](C)[C@@](O)(O3)C(=O)C(=O)N3CCCC[C@H]3C(=O)O2)CC[C@H]1O (stereo not given in full)
